Patent publication US8475804B2 (priority 2009, dated 2013)
Structures can show the parent of a compound that is named as a salt. Where two headings read alike, the source gives them in different places. Non-standard residues stand in square brackets, D forms with d. Residues, ends and D or L forms follow the SMILES beside them. *: point of attachment. Nva = CCC[C@H](N)C(=O)O; Cbz = O=C(OCc1ccccc1)*

System: Ebola virus
Assay: microbe, parasite or virus in culture
Type: cell-based, Ebolavirus (EBOV)
Conditions: for Emax: read-out: Max Effect

Row | Compound | Max Effect | IC50 (read-out: IC50) [µM] | Emax (Zaire ebolavirus, Vero) [%] | IC50 (Zaire ebolavirus, Vero) [µM]
1 | CO[C@@H]1[C@H](O)C[C@@H](O[C@@H]2C[C@H](Oc3cc4cc5c(c(O)c4c(O)c3C)C(=O)[C@@H](O[C@H]3C[C@@H](O[C@H]4C[C@@H](O[C@H]6C[C@](C)(O)[C@@H](OC(C)=O)[C@H](C)O6)[C@H](O)[C@@H](C)O4)[C@H](O)[C@@H](C)O3)[C@H]([C@H](OC)C(=O)[C@@H](O)[C@@H](C)O)C5)O[C@H](C)[C@@H]2OC(C)=O)O[C@@H]1C [Chromomycin A3] | 0.629 | 0.4 | – | –
2 | C=C(NC(=O)C(=C)NC(=O)c1csc(C2=N[C@@H]3c4csc(n4)[C@H]4NC(=O)c5csc(n5)[C@H]([C@](C)(O)[C@@H](C)O)NC(=O)[C@H]5CSC(=N5)/C(=C/C)NC(=O)[C@H]([C@@H](C)O)NC(=O)c5csc(n5)[C@]3(CC2)NC(=O)[C@H](C)NC(=O)C(=C)NC(=O)[C@H](C)NC(=O)[C@H]([C@@H](C)CC)N[C@@H]2C=Cc3c([C@H](C)O)cc(nc3[C@H]2O)C(=O)O[C@@H]4C)n1)C(N)=O [Thiostrepton] | – | – | 45.4 | –
3 | CN(C)CCOC(C)(c1ccccc1)c1ccc(Cl)cc1 (stereo not shown) [Chlorphenoxamine Hydrochloride] | – | – | 78.9 | 5
4 | CC/C(=C(\c1ccccc1)c1ccc(OCCN(C)C)cc1)c1ccccc1 [Tamoxifen] | – | – | 90 | –
5 | CC(=O)OC[C@H]1O[C@@H]([S-])[C@H](OC(C)=O)[C@@H](OC(C)=O)[C@@H]1OC(C)=O.CCP(CC)CC.[Au+] [Auranofin] | – | < 1 | – | –
6 | CC(C)[C@H](NC(=O)OCc1ccccc1)C(=O)N[C@H](C=O)Cc1ccccc1 [Carbobenzoxy-valinyl-phenylalaninal] (Cbz-Val-Phe-aldehyde) | – | – | 60.7 | 2.9
7 | CC(C)C[C@H]1C(=O)N2CCC[C@H]2[C@]2(O)O[C@](NC(=O)[C@@H]3C=C4c5cccc6[nH]c(Br)c(c56)C[C@H]4N(C)C3)(C(C)C)C(=O)N12 [Bromocriptine Mesylate] | – | – | 42.2 | –
8 | COC(=O)[C@H]1[C@H]2C[C@@H]3c4[nH]c5cc(OC)ccc5c4CCN3C[C@H]2C[C@@H](OC(=O)/C=C/c2cc(OC)c(OC)c(OC)c2)[C@@H]1OC [Rescinnamine] | – | – | 51.2 | –
9 | NCCNS(=O)(=O)c1ccc(Cl)c2ccncc12 [CKI7] | 0.565 | 10.7 | – | –
10 | CCOC(=O)c1c(CSc2ccccc2)n(C)c2cc(Br)c(O)c(CN(C)C)c12 [Arbidol] | – | – | 59.2 | 6
11 | CC(C)C(=O)OCC(=O)[C@@]12O[C@H](C3CCCCC3)O[C@@H]1C[C@H]1[C@@H]3CCC4=CC(=O)C=C[C@]4(C)[C@H]3[C@@H](O)C[C@@]12C [Ciclesonide] | – | – | 51.2 | 16
12 | CN1CCN(C(c2ccccc2)c2ccc(Cl)cc2)CC1 (stereo not shown) [Chlorcyclizine Hydrochloride] | – | – | 45.6 | –
13 | CC[C@H](C)[C@H](NC(=O)[C@H]([C@@H](C)CC)N(C)C(C)=O)C(=O)N[C@H](C(=O)N[C@@H](CC(C)C)C(=O)[C@@]1(C)CO1)[C@@H](C)O [Epoxomicin] | 0.466 | – | – | –
14 | C#C[C@]1(O)CC[C@H]2[C@@H]3CCC4=Cc5oncc5C[C@]4(C)[C@H]3CC[C@@]21C [Danazol] | – | – | 54.6 | 12.9
15 | CC/C(=C(/CC)c1ccc(O)cc1)c1ccc(O)cc1 [Diethylstilbestrol] | – | – | 43.6 | –
16 | Cc1cc(C2CCCCC2)n(O)c(=O)c1 [Ciclopirox Olamine] | – | – | 43.1 | –
17 | Nc1ccc(C(=O)N[C@@H](CCC(=O)O)C(=O)O)cc1 [N-(4-Aminobenzoyl)-L-glutamic acid] | – | – | 85.5 | 9.7
18 | CC[C@H]1CN2CCc3cc(OC)c(OC)cc3[C@@H]2C[C@@H]1C[C@H]1NCCc2cc(OC)c(OC)cc21 [Emetine dihydrochloride hydrate] | – | – | 89.3 | 0.3
19 | O=C(OC[C@H]1O[C@@H](OC(=O)c2cc(O)c(O)c(OC(=O)c3cc(O)c(O)c(O)c3)c2)[C@H](OC(=O)c2cc(O)c(O)c(OC(=O)c3cc(O)c(O)c(O)c3)c2)[C@@H](OC(=O)c2cc(O)c(O)c(OC(=O)c3cc(O)c(O)c(O)c3)c2)[C@@H]1OC(=O)c1cc(O)c(O)c(OC(=O)c2cc(O)c(O)c(O)c2)c1)c1cc(O)c(O)c(OC(=O)c2cc(O)c(O)c(O)c2)c1 [Tannic Acid] | – | – | 54.3 | –
20 | CCCCCCCCCCCC[N+](C)(C)CCOc1ccccc1 [Domiphen Bromide] | – | – | 71.5 | 7.5
21 | O=C(Nc1ccc([N+](=O)[O-])cc1Cl)c1cc(Cl)ccc1O [Niclosamide] | – | – | 84.2 | 2.6

Row | Compound | Max Effect | IC50 (read-out: IC50) [µM] | Emax (Zaire ebolavirus, Vero) [%] | IC50 (Zaire ebolavirus, Vero) [µM]
22 | Guanethidine Monosulfate | 0.793 | 8.7 | – | –
23 | CCSc1ccc2c(c1)N(CCCN1CCN(C)CC1)c1ccccc1S2 [Thiethylperazine Maleate] | – | – | 83.2 | 4.4
24 | Clc1ccc(C(Cn2ccnc2)OCc2ccsc2Cl)c(Cl)c1 (stereo not shown) [Tioconazole] | – | – | 72.9 | 8.5
25 | COc1c(C)c2c(c(O)c1C/C=C(\C)CCC(=O)O)C(=O)OC2 [Mycophenolic Acid] | – | – | 80 | < 1
26 | Fc1ccc(C(OCCN2CCN(CCCc3ccccc3)CC2)c2ccc(F)cc2)cc1 [Vanoxerine] | – | – | 56.4 | 5.8
27 | CN1CCCC(n2nc(Cc3ccc(Cl)cc3)c3ccccc3c2=O)CC1 (stereo not shown) [Azelastine] | – | – | 64.8 | 122
28 | Cc1cc(/C=C/c2ccc3cc(N(C)C)ccc3[n+]2C)c(C)n1-c1ccccc1 [Pyrvinium Pamoate] | – | – | 80 | 3.4
29 | O=c1cnn([C@@H]2O[C@H](CO)[C@@H](O)[C@H]2O)c(=O)[nH]1 [Agent 6-Azauridine, 6-Azauridine] | – | – | 80 | < 1
30 | Oc1c(Cl)cc(Cl)c(Cl)c1Cc1c(O)c(Cl)cc(Cl)c1Cl [Hexachlorophene] | – | – | 71.3 | 3.2
31 | CNc1ccc2oc(C[C@H]3O[C@@]4(CC[C@H]3C)O[C@H]([C@H](C)C(=O)c3ccc[nH]3)[C@H](C)C[C@H]4C)nc2c1C(=O)O [Calcimycin A23187] | 0.789 | 1.1 | – | –
32 | C=C(C)[C@H]1Cc2c(ccc3c2O[C@@H]2COc4cc(OC)c(OC)cc4[C@@H]2C3=O)O1 [Rotenone] | – | – | 70 | < 2
33 | C=C1[C@@H](O)[C@@H]2O[C@]3(CC[C@H](/C=C/[C@@H](C)[C@@H]4CC(C)=C[C@@]5(O[C@H](C[C@@](C)(O)C(=O)O)CC[C@H]5O)O4)O3)CC[C@H]2O[C@@H]1[C@@H](O)C[C@H](C)[C@H]1O[C@@]2(CCCCO2)CC[C@H]1C [Okadaic Acid] | – | – | 48.8 | –
34 | N[C@H]1CC[C@@H](c2ccc(Cl)c(Cl)c2)c2ccccc21 [(1S,4S)-Desmethyl Sertraline, Hydrochloride] | – | – | 68.8 | 1.3
35 | COCc1c(C(C)C)nc(C(C)C)c(/C=C/[C@@H](O)C[C@@H](O)CC(=O)O)c1-c1ccc(F)cc1 [Cerivastatin Sodium] | – | – | 44.3 | 0.1
36 | C/C1=C/C(=O)O[C@@H]2C[C@@H](CC[C@H](C)/C=C\CC1)O[C@@](O)([C@@H]1CSC(=O)N1)C2 [Latrunculin B] | 0.621 | 0.4 | – | –
37 | CSc1nc2cc(Cl)c(Oc3cccc(Cl)c3Cl)cc2[nH]1 [Triclabendazole] | – | – | 55.2 | 9.2
38 | CCCCCCCCCC(=O)NC(CN1CCOCC1)C(O)c1ccccc1.Cl (stereo not shown) [PDMP Hydrochloride] | 0.390 | – | – | –
39 | CN1CCN(CCCN2c3ccccc3Sc3ccc(C(F)(F)F)cc32)CC1 [Trifluoperazine Hydrochloride] | – | – | 95.5 | 5
40 | CC(=O)O.CC(=O)O.NC(=N\CCCCCC/N=C(N)/N=C(\N)Nc1ccc(Cl)cc1)/N=C(\N)Nc1ccc(Cl)cc1 [Chlorhexidine Diacetate] | 0.543 | 6.1 | – | –
41 | CCC[C@@H](C=O)NC(=O)[C@H](CC(C)C)NC(=O)[C@H](CC(C)C)NC(=O)OCc1ccccc1 [MG115] (Cbz-Leu-Leu-[Nva]-aldehyde) | 0.693 | 0.9 | – | –
42 | CCCOc1ccc2nc(NC(=O)OC)[nH]c2c1 [Oxibendazole] | – | – | 47.2 | –

Row | Compound | Max Effect | IC50 (read-out: IC50) [µM] | Emax (Zaire ebolavirus, Vero) [%] | IC50 (Zaire ebolavirus, Vero) [µM]
43 | O=C(O)Cc1cc(I)c(Oc2ccc(O)c(I)c2)c(I)c1 [Tiratricol] | – | – | 47.8 | –
44 | Bromelain | 0.769 | 4 | – | –
45 | Clc1cc(Cl)c(OCC#CI)cc1Cl [Haloprogin] | – | – | 58.8 | 2.9
46 | Cetrimide | 0.692 | 5.6 | – | –
47 | CN1CCC(=C2c3ccccc3C=Cc3ccccc32)CC1 [Cyproheptadine Hydrochloride] | – | – | 49.3 | –
48 | COc1cc(C=C2CCCC(=Cc3ccc(O)c(OC)c3)C2=O)ccc1O [2,6-Divanillylidenecyclohexanone] | – | – | 93.2 | 6.4
49 | CO/C1=C\C(C)=C\[C@@H](C)[C@@H](O)[C@@H](C)C/C(C)=C/C=C/[C@H](OC)[C@@H]([C@@H](C)[C@@H](O)[C@H](C)[C@@]2(O)C[C@@H](O)[C@H](C)[C@@H](C(C)C)O2)OC1=O [Bafilomycin A1] | 0.880 | 0.019 | – | –
50 | CC(C)c1nc(CN(C)C(=O)N[C@H](C(=O)N[C@@H](Cc2ccccc2)C[C@H](O)[C@H](Cc2ccccc2)NC(=O)OCc2cncs2)C(C)C)cs1 [Ritonavir] | – | – | 48.5 | –
51 | CC1=C(/C=C/C(C)=C/C=C/C(C)=C/C(=O)Nc2ccc(O)cc2)C(C)(C)CCC1 [Fenretinide] | – | – | 42.6 | –
52 | Acetophenazine Maleate | 0.478 | – | – | –
53 | O=C1Nc2ccc3ncsc3c2/C1=C/c1cnc[nH]1 [PKR inhibitor] | 0.434 | – | – | –
54 | O=C([O-])O.[Na+] [Sodium Bicarbonate] | 0.389 | – | – | –
55 | Tunicamycin | 0.800 | < 0.28 | – | –
56 | NC(=O)c1cn([C@@H]2O[C@H](CO)[C@@H](O)[C@H]2O)c2ncnc(N)c12 [Sangivamycin Hydrate] | – | – | 90 | < 0.2
57 | N=C(N)c1ccc(OCCCCCOc2ccc(C(=N)N)cc2)cc1 [Pentamidine] | – | – | 42.2 | 10.5
58 | C[C@]12CC[C@H]3C(=CCc4cc(O)ccc43)[C@@H]1CCC2=O [Equilin] | – | – | 42.4 | –
59 | CC(=O)N[C@@H](CC(C)C)C(=O)N[C@@H](CC(C)C)C(=O)N[C@H](C=O)CCCNC(=N)N [Leupeptin HCl] | – | – | 86.5 | 3.2
60 | Antimycin A | 0.850 | < 0.04 | – | –
61 | CCN(CCCc1ccccc1)CCCc1ccccc1 [Alverine Citrate] | – | – | 49.5 | –
